According to patent US6015809A (priority 1999, dated 2000):
≈ marks a conversion by molar mass, not a printed value. Where two headings read alike, the source gives them in different places.

Assays:
Experiment in all cases: Antifungal activity, MIC microdilution
Format in all cases: cell-based
Aspergillus fumigatus = conditions: strain ATCC 26933, RPMI 1640, 35° C., 24-48 hours
Experimental: (§1) Antifungal activity for the compounds of this invention was established by evaluating a representative compound of this invention (Compound I) against several strains of fungi. Briefly the following procedure was used to evaluate such activity. A 96 U-bottom microtiter plate was filled (50 μl/well) with RPMI 1640. The compounds to be evaluated were placed in appropriate wells, and serial diluted in successive wells to provide 11 dilutions. The concentrations ranged from 64 through 0.06 μg/ml. An adjusted inoculum of fungi (50 μl) was added to each well and the plates were incubated at 35° C. for 24-48 hours.

Candida krussii = conditions: strain 94-2, RPMI 1640, 35° C., 24-48 hours
Experimental: as §1

Candida tropicalis = conditions: RPMI 1640, 35° C., 24-48 hours
Experimental: as §1

Candida parapsilosis = conditions: RPMI 1640, 35° C., 24-48 hours
Experimental: as §1

Cryptococcus neoformans = conditions: strain ATCC 90112, RPMI 1640, 35° C., 24-48 hours
Experimental: as §1

[1] = tested on: Filobasidiella neoformans; conditions: strain ATCC 7472, RPMI 1640, 35° C., 24-48 hours
Experimental: as §1

Candida glabrata = conditions: strain ATCC 90030, RPMI 1640, 35° C., 24-48 hours
Experimental: as §1

Aspergillus flavus = tested on: Aspergillus flavus
Experimental: as §1, with “Briefly” for “Antifungal activity for the compounds of this invention was established by evaluating a representative compound of this invention (Compound I) against several strains of fungi. Briefly”

Candida rugosa = conditions: strain 94-10, RPMI 1640, 35° C., 24-48 hours
Experimental: as §1, with “Briefly” for “Antifungal activity for the compounds of this invention was established by evaluating a representative compound of this invention (Compound I) against several strains of fungi. Briefly”

Aspergillus niger = conditions: strain S-430, RPMI 1640, 35° C., 24-48 hours
Experimental: as §1, with “Briefly” for “Antifungal activity for the compounds of this invention was established by evaluating a representative compound of this invention (Compound I) against several strains of fungi. Briefly”

Saccharomyces cerevisiae = tested on: Saccharomyces cerevisiae
Experimental: as §1, with “Briefly” for “Antifungal activity for the compounds of this invention was established by evaluating a representative compound of this invention (Compound I) against several strains of fungi. Briefly”

Candida pseudotropicalis = conditions: strain ATCC 28838, RPMI 1640, 35° C., 24-48 hours
Experimental: as §1, with “Briefly” for “Antifungal activity for the compounds of this invention was established by evaluating a representative compound of this invention (Compound I) against several strains of fungi. Briefly”

Candida lusitaniae = conditions: Clavispora lusitaniae; strain 94-3; RPMI 1640, 35° C., 24-48 hours; read-out: MIC
Experimental: as §1, with “Briefly” for “Antifungal activity for the compounds of this invention was established by evaluating a representative compound of this invention (Compound I) against several strains of fungi. Briefly”

Candida albicans = conditions: RPMI 1640, 35° C., 24-48 hours
Experimental: as §1, with “Briefly” for “Antifungal activity for the compounds of this invention was established by evaluating a representative compound of this invention (Compound I) against several strains of fungi. Briefly”

Candida zeylanoided = conditions: strain 94-15, RPMI 1640, 35° C., 24-48 hours
Experimental: as §1, with “Briefly” for “Antifungal activity for the compounds of this invention was established by evaluating a representative compound of this invention (Compound I) against several strains of fungi. Briefly”

[2] = Aspergillus fumigatus, ATCC26933, read-out: MIC
[3] = Candida tropicalis, strain 94-14, read-out: MIC
[4] = Lodderomyces parapsilosis, ATCC90018, strain ATCC 90018, read-out: MIC
[5] = Lodderomyces parapsilosis, strain 94-8, read-out: MIC
[6] = Lodderomyces parapsilosis, strain 94-9, read-out: MIC
[7] = Cryptococcus neoformans, ATCC90112, read-out: MIC
[8] = Cryptococcus neoformans, ATCC7472, read-out: MIC
[9] = Nakaseomyces glabratus, ATCC90030, read-out: MIC
[10] = Aspergillus flavus, ATCC12963, strain ATCC 12963, RPMI 1640, 35° C., 24-48 hours, read-out: MIC
[11] = Aspergillus niger, read-out: MIC
[12] = Kluyveromyces marxianus, ATCC28838, read-out: MIC
[13] = Saccharomyces cerevisiae, ATCC2601, strain ATCC 2601, RPMI 1640, 35° C., 24-48 hours, read-out: MIC
[14] = Candida albicans, ATCC90028, strain ATCC 90028

| SMILES | MIC (Aspergillus fumigatus; [2]) [µg/mL] | MIC (Candida krussii; Candida, read-out: MIC) [µg/mL] | MIC (Candida tropicalis; [3]) [µg/mL] | MIC (Candida tropicalis; strain 94-13) [µg/mL] | MIC (Candida parapsilosis; [4]) [µg/mL] | MIC (Candida parapsilosis; [5]) [µg/mL] | MIC (Candida parapsilosis; [6]) [µg/mL] | MIC (Cryptococcus neoformans; [7]) [µg/mL] | MIC [1, 8] [µg/mL] | MIC (Candida glabrata; [9]) [µg/mL] | MIC (Aspergillus flavus; [10]) [µg/mL] | MIC (Candida rugosa; Diutina rugosa, read-out: MIC) [µg/mL] | MIC (Aspergillus niger; [11]) [µg/mL] | MIC (Candida pseudotropicalis; [12]) [µg/mL] | MIC (Candida lusitaniae) [µg/mL] | MIC (Candida zeylanoided; Candida, read-out: MIC) [µg/mL] | MIC (Saccharomyces cerevisiae; [13]) [µg/mL] | MIC (Candida albicans; [14]) [µg/mL] | MIC (Candida albicans; Candida albicans, strain 94-1) [µg/mL] | MIC (Candida albicans; Candida albicans, strain 1063) [µg/mL] | other results |
| --- | --- | --- | --- | --- | --- | --- | --- | --- | --- | --- | --- | --- | --- | --- | --- | --- | --- | --- | --- | --- | --- |
| CC1C=CC=CC=CC=CC=CC=CC=CC(OC2OC(C)C(O)C(N)C2O)CC2OC(O)(CC(O)CC(O)C(O)CCC(O)CC(O)CC(=O)OC(C)C(C)C1O)CC(O)C2C(=O)O (stereo not drawn) [Amphtericin B] | 0.25 (≈ 0.271 µM) | 0.5 (≈ 0.541 µM) | 0.25 (≈ 0.271 µM) | 0.25 (≈ 0.271 µM) | ≤ 0.12 | 0.25 (≈ 0.271 µM) | 0.5 (≈ 0.541 µM) | ≤ 0.12 | 0.12 (≈ 0.13 µM) | 0.25 (≈ 0.271 µM) | 2 (≈ 2.16 µM) | 0.25 (≈ 0.271 µM) | 0.25 (≈ 0.271 µM) | 0.25 (≈ 0.271 µM) | ≤ 0.12 | 0.25 (≈ 0.271 µM) |  |  |  |  | MIC (Saccharomyces cerevisiae; Saccharomyces cerevisiae, ATCC2601): ≤ 0.12 µg/mL; MIC (Candida albicans; Candida albicans, ATCC90028, strain ATCC 90028, read-out: MIC): 0.25 µg/mL (≈ 0.271 µM); MIC (Candida albicans; Candida albicans, strain 94-1, read-out: MIC): ≤ 0.12 µg/mL; MIC (Candida albicans; Candida albicans, strain 1063, read-out: MIC): 0.25 µg/mL (≈ 0.271 µM); MIC (Candida albicans; Candida albicans, strain 1117, read-out: MIC): 0.25 µg/mL (≈ 0.271 µM); MIC (Candida albicans; Candida albicans, strain C-83, read-out: MIC): 0.25 µg/mL (≈ 0.271 µM) |
| OC(Cn1cncn1)(Cn1cncn1)c1ccc(F)cc1F [Fluconazole] | > 16 | ≥ 16 | ≥ 16 | ≥ 16 | 0.5 (≈ 1.63 µM) | 0.5 (≈ 1.63 µM) | 0.5 (≈ 1.63 µM) | 8 (≈ 26.1 µM) | 16 (≈ 52.2 µM) | 4 (≈ 13.1 µM) | > 16 | 2 (≈ 6.53 µM) | > 16 | ≤ 0.12 | 1 (≈ 3.27 µM) | ≥ 16 | 8 (≈ 26.1 µM) | ≥ 16 | ≥ 16 | 4 (≈ 13.1 µM) | MIC (Candida albicans; Candida albicans, strain 1117): 8 µg/mL (≈ 26.1 µM); MIC (Candida albicans; Candida albicans, strain C-83): ≥ 16 µg/mL |
| Clc1ccc(COC(Cn2ccnc2)c2ccc(Cl)cc2Cl)c(Cl)c1 (stereo not drawn) [Miconazole] | 1 (≈ 2.4 µM) | 2 (≈ 4.81 µM) | 4 (≈ 9.61 µM) | 4 (≈ 9.61 µM) | ≤ 0.12 | 0.25 (≈ 0.601 µM) | 0.5 (≈ 1.2 µM) | ≤ 0.12 | 0.25 (≈ 0.601 µM) | ≤ 0.12 |  | ≤ 0.12 | 4 (≈ 9.61 µM) | ≤ 0.12 | ≤ 0.12 | 0.25 (≈ 0.601 µM) | ≤ 0.12 | 0.5 (≈ 1.2 µM) | 8 (≈ 19.2 µM) | 1 (≈ 2.4 µM) | MIC (Aspergillus flavus; Aspergillus flavus, ATCC12963): 0.5 µg/mL (≈ 1.2 µM); MIC (Candida albicans; Candida albicans, strain 1117): 1 µg/mL (≈ 2.4 µM); MIC (Candida albicans; Candida albicans, strain C-83): 8 µg/mL (≈ 19.2 µM) |
| C[C@@H]1[C@H](O)[C@@H](C)/C=C/C=C/CC/C=C/C=C/C=C/C=C/C(O[C@H]2O[C@H](C)[C@@H](O)[C@H](N)[C@@H]2O)CC2O[C@](O)(CC(O)C(O)CCC(O)CC(O)CC(O)CC(=O)O[C@H]1C)CC(O)C2C(=O)O (stereo partly drawn) [Nystatin] |  |  |  | 1 (≈ 1.08 µM) |  |  |  |  |  |  |  |  |  |  |  |  |  |  |  |  | MIC (Aspergillus fumigatus): 1 µg/mL (≈ 1.08 µM); MIC (Candida krussii): 2 µg/mL (≈ 2.16 µM); MIC (Candida tropicalis; strain 94-14): 2 µg/mL (≈ 2.16 µM); MIC (Candida parapsilosis; strain 94-8): 1 µg/mL (≈ 1.08 µM); MIC (Candida parapsilosis; strain 94-9): 1 µg/mL (≈ 1.08 µM); MIC (Candida parapsilosis; strain ATCC 90018): 1 µg/mL (≈ 1.08 µM); MIC (Cryptococcus neoformans): 0.5 µg/mL (≈ 0.54 µM); MIC [1]: 0.5 µg/mL (≈ 0.54 µM); MIC (Candida glabrata): 1 µg/mL (≈ 1.08 µM); MIC (Aspergillus flavus; strain ATCC 12963, RPMI 1640, 35° C., 24-48 hours): ≥ 16 µg/mL; MIC (Candida rugosa): 2 µg/mL (≈ 2.16 µM); MIC (Aspergillus niger): 4 µg/mL (≈ 4.32 µM); MIC (Saccharomyces cerevisiae; strain ATCC 2601, RPMI 1640, 35° C., 24-48 hours): 2 µg/mL (≈ 2.16 µM); MIC (Candida pseudotropicalis): 1 µg/mL (≈ 1.08 µM); MIC (Candida albicans; strain 94-1): 2.0 µg/mL (≈ 2.16 µM); MIC (Candida albicans; strain 1063): 2 µg/mL (≈ 2.16 µM); MIC (Candida albicans; strain 1117): 1 µg/mL (≈ 1.08 µM); MIC (Candida albicans; strain ATCC 90028): 1 µg/mL (≈ 1.08 µM); MIC (Candida albicans; strain C-83): 2 µg/mL (≈ 2.16 µM); MIC (Candida zeylanoided): 1 µg/mL (≈ 1.08 µM) |
